The text below walks through data of patent publication US4873088A, “Liposome drug delivery method and composition” (priority 1987, dated 1989).

The conditions of data set [1]: both compounds in the free form; cited from earlier work.
For a further data set, the system named is L1210 leukemia cells. In words: Acute therapeutic effect (mean survival time) in mice injected i.p. with 10^6 L1210 leukemia cells, i.v. ADM. Format: in vivo, DBA 2J mice. To be noted: one day after L1210. The procedure: The day of death of the animals was recorded, and the mean survival time of each group was calculated. Each group contained from between 6 and 10 mice.

Data set [2] in a line: Acute and chronic toxicity (LD50) after single i.v. dose in healthy mice. To be noted: mouse, in vivo, iv. The procedure:
The toxicity of the three ADM preparations in Table 1 above was tested against healthy DMA 2J mice.
The data are expressed in terms of LD50, i.e. the dosage (in mg drug per kilogram of animal body weight) which produces death in half the animals receiving the drug. […] The number of mice available for determination of chronic toxicity (survival of acute toxicity) varied from between about 2 and 10 mice per group.

The test system of data set [3] is YAC-1 lymphoma cells. In words: PEC NK activity with and without anti-Asialo GM1 antibody + complement. Format: cell-based, mice. To be noted: PEC 7 days after treatment; for NK activity, specific 51Cr release, Untreated: no antibody. On the procedure:
In order to verify that the effector cells in the PEC population that were active against YAC-1 cells had.NK properties, PECs were treated with anti-Asialo GMI antiserum and complement in vitro prior to the 4 hr toxicity assay for PECs.
Anti-Asialo GM1 antibody was added directly to PEC in the microwells at a final dilution of 1:20. After 30 min on ice the cultured effector cells were spun down, supernatant removed and the cells resuspended. Low toxicity rabbit complement was added (final dilution 1:20) and the cultures incubated for 45 min. After 3 washings, the PECs (5×10^5) were cultures with 10^4 radio-labeled YAC-1 cells, and radioactivity released was assayed after 4 hours.

The test system of a further data set is IL-1. The experiment in a line: IL-1 like activity of adherent PEC culture supernatants (thymocyte comitogenic assay). Format: cell-based, C3H/Hej mice. The procedure:
(§1) The cells were cultured for 18 hours with the concentrations of LPS indicated below in Table 4.
A standard thymocyte comitogenic assay for IL-1 was used to test 18 h adherent PEC culture supernatants for IL1 like activity. Thymopytes (5×10^5) from C3H/Hej mice were added in 0.1 ml/well to flat bottom, 96 well plates. An equal volume of adherent PEC culture supernatant was added for a final volume of 0.2 ml. To facilitate a proliferative response, the media was supplemented with PHA ([…]) and 2-mercaptoethanol ([…]). Cultures were incubated for 72 h. Four hours before harvesting, the cultures were pulsed with [^3 H]dThd (New England Nuclear, 2 Ci/mole; […]).
Cells were harvested on glass fiber filters with an Otto Hiller cell harvester. The radioactivity was measured by scintillation counting using a Beckmann counter (Model LS 7000). Thymidine uptake by the thymocytes was expressed as mean cpm±S.D.

Another data set deals with IL-2. The experiment in a line: IL-2 activity of adherent PEC culture supernatants (IL-2 dependent CTCL-1 line). The data set is classed as cell-based. On the procedure: The purpose is to determine if the enhanced macrophage tumoricidal activity and NK activity detailed above correlates with increases in either IL-1 or IL-2.
as §1
The procedure used for assaying IL-2 has been described (Ehrke, 1986). Briefly, using a long term, IL-2 dependent cytolytic T cell line (CTCL-1), 10^4 cells in 0.1 ml were added to 0.1 ml volumes of conditioned media from adherent PEC cultures. The cells were incubated for 24 h and pulsed with [^3 H]Thd ([…]) 4 h before harvest. Results were expressed as the arithmetic mean of cpm dThd uptake ±S.D. A semipurified, rat IL-2 preparation was used as a positive control.

Data set [4] is described as follows: PEC ADM content by fluorescence after i.p. administration. Format: in vivo, mice. The procedure: ADM was extracted from 10^6 PEC/sample by sonication in 36.5% HCl: absolute ethanol (1:11) in an ice bath for 5 min. This sonicated lysate was centrifuged (12,150×g) for 20 min at 4-6 C. The supernatant was measured for fluorescence at 468 nm excitation and 585 nm emission using a Perkin-Elmer (Model 650-10S) spectrofluorometer.

Data set [5] concerns YAC-1 lymphoma cells. In words: Splenic NK activity against YAC-1 cells (51Cr release). The data set is classed as cell-based, mice. The procedure:
Fresh spleen cells were added to ^51 Cr labeled YAC-1 cells at different effector to target cell ratios.

On to `Cc1c(C)c2c(c(C)c1O)CCC(C)(CCCC(C)CCCC(C)CCCC(C)C)O2` (stereo not drawn) [alpha-tocopherol (vitamin E), alpha-tocopherol], for which, in data set [1], the “cardiotoxicity of ADM (in words)” value is listed as “reduce the cardiotoxicity of ADM in animals”.
For the molecule `COc1cccc2c1C(=O)c1c(O)c3c(c(O)c1C2=O)C[C@@](O)(C(=O)CO)C[C@@H]3O[C@H]1C[C@H](N)[C@H](O)[C@H](C)O1` [free ADM, doxorubicin], the “Mean Survival Time ± S.D.” value in the data set with L1210 leukemia cells (10 mg/kg ADM) is listed as 18.4 ± 1.8 days; in the data set on L1210 leukemia cells (20 mg/kg ADM), 12.2 ± 1.6 days. Further, the LD50 at 2880 h in data set [2] (death between 50 and 120 days, read-out: Mean LD50 ± S.D., chronic) is 12 ± 5 mg/kg. Besides, the LD50 at 336 h in data set [2] (death within 14 days, read-out: Mean LD50 ± S.D., acute) was determined as 20 ± 5 mg/kg. Further, the results for the “NK activity, specific 51Cr release, Asialo GM1 Antibody + Complement” value in the data set with YAC-1 lymphoma cells [3] (Exp. No. 1) and in the data set on YAC-1 lymphoma cells [3] (Exp. No. 2) were 3.4 ± 0.9% and 0.2 ± 0.8%, respectively. Also, the “NK activity, specific 51Cr release, Untreated” value in the data set with YAC-1 lymphoma cells [3] (Exp. No. 1) came to 16.9 ± 2.6%; in the data set on YAC-1 lymphoma cells [3] (Exp. No. 2), 18.9 ± 1.4%. Also, the results for the “IL-1 activity (thymidine uptake by thymocytes)” value in the data set on IL-1 (LPS 0 ng/ml), with IL-1 (LPS 0.001 ng/ml) and in the data set with IL-1 (LPS 0.1 ng/ml) were 9142 ± 1179 cpm, 9693 ± 230 cpm and 11588 ± 953 cpm, respectively. Further, the “dependence of IL-1-like activity on LPS (in words)” value in the data set with IL-1 (LPS 0.001 to 1,000 ng/ml) is on record as “no significant increase in this activity from ADM PEC was observed with LPS exposure”. The “IL-2 activity (dThd uptake)” value is on record as 285 ± 86 cpm with IL-2 (LPS 0 ng/ml) and 286 ± 74 cpm in the data set on IL-2 (LPS 0.001-1000 ng/ml). Also, in the data set with IL-2 (with or without LPS activation), the “IL-2 activity (in words)” value is “about background”. The “ADM Equivalents in PEC” value in data set [4] (Day 4, i.p.) amounted to 4.2 ± 0.5 ng ADM/10^6 PECs; in data set [4] (Day 7, i.p.) it was 1.4 ± 0.4 ng ADM/10^6 PECs; in data set [4] (Day 11, i.p.) it was 0.2 ± 0.2 ng ADM/10^6 PECs. The “duration of suppression of splenic NK (in words)” value with YAC-1 lymphoma cells [5] is recorded as “transient”. For the same molecule, in the data set on YAC-1 lymphoma cells [5] (7 or 11 days before sacrifice), the “splenic NK suppression (in words)” value is “suppression was not observed”. For the same molecule, the “splenic NK activity (in words)” value in the data set on YAC-1 lymphoma cells [5] (4 days following treatment) is “reduced”.

What is called LD50 is the dose at which mortality reaches 50%.
